Reference: ChEMBL document CHEMBL5344468, “Novel Heterocyclic PAD4 Inhibitors for Treating Diseases” (ACS Med Chem Lett, 2024)

molecular target: Protein-arginine deiminase type-4 (Homo sapiens, UniProt Q9UM07); assay: Inhibition of human PAD4 using BAEE as substrate preincubated with enzyme for 30 mins followed by substrate addition for 90 mins and later incubated with phenyl glyoxal for 30 mins by RFMS assay
Sequence (Q9UM07 whole entry): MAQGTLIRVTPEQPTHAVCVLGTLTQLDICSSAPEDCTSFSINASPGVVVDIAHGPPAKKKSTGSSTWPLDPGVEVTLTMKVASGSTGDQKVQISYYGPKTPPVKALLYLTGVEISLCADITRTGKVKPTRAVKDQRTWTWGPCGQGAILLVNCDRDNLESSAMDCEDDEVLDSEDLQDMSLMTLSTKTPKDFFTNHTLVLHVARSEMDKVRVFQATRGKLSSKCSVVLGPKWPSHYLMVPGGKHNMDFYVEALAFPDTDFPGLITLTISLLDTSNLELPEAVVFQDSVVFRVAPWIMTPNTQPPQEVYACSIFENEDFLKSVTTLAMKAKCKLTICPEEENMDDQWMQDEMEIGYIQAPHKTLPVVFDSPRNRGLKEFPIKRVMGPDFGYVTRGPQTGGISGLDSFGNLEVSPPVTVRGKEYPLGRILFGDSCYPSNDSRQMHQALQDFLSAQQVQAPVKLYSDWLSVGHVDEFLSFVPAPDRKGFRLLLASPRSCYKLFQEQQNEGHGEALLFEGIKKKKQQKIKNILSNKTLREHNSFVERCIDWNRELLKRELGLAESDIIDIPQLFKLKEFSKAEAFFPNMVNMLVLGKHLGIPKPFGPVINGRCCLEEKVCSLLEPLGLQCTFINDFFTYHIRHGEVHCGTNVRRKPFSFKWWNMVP

| Compound | IC50 [nM] |
| --- | --- |
| Cn1c(-c2cc3cccc(OCCc4cccnc4)c3n2CC2CC2)nc2cc3c(nc21)CCN(C[C@H](N)CF)C3=O | ≤ 10 |
| Cn1c(-c2cc3cccc(OCCc4cnn[nH]4)c3n2CC2CC2)nc2cc3c(nc21)CCN(C[C@H](N)CF)C3=O | ≤ 10 |
| Cn1c(-c2cc3cccc(OCCc4ccn[nH]4)c3n2CC2CC2)nc2cc3c(nc21)CCN(C[C@H](N)CF)C3=O | ≤ 10 |
| Cn1c(-c2cc3ccnc(OCCn4ccnc4)c3n2CC2CC2)nc2cc3c(nc21)CCN(C[C@H](N)CF)C3=O | ≤ 10 |

Results, then the molecule that gave them:

| IC50 [nM] | Compound |
| --- | --- |
| ≤ 10 | Cn1c(-c2cc3cccc(OCCc4ccon4)c3n2CC2CC2)nc2cc3c(nc21)CCN(C[C@H](N)CF)C3=O |
| ≤ 10 | Cn1c(-c2cc3cccc(OCCc4cnco4)c3n2CC2CC2)nc2cc3c(nc21)CCN(C[C@H](N)CF)C3=O |
